Reference: PubChem BioAssay AID330 (DTP/NCI, 2004)
Values joined by “and” are separate entries in the source; they are usually repeats but may differ in a detail not shown here. Equal entries are not always repeated. Toxic doses and inconclusive results are not listed. Rule for the calls: active = survival T/C of 150% or more; inactive = T/C below 125% in these data.

Test system: P388 leukemia ip, CD2F1 mice, survival T/C
Assay: NCI In Vivo Anticancer Drug Screen. Data for tumor model P388 Leukemia (intraperitoneal) in CD2F1 (CDF1) mice
Settings: endpoint: median survival time, higher = longer survival
Outline: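 Mice carrying the transplanted tumor received test compound or vehicle. Survival was recorded in each group, and the value is the treated-group measurement divided by that of the vehicle-treated control group.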

[1] = dose: 25.0 mg/kg/injection, schedule: Q01DX009 (ip), vehicle: saline with Tween-80
[2] = dose: 50.0 mg/kg/injection, schedule: Q01DX009 (ip), vehicle: saline with Tween-80
[3] = dose: 100.0 mg/kg/injection, schedule: Q01DX009 (ip), vehicle: saline with Tween-80
[4] = dose: 60.0 mg/kg/injection, schedule: Q01DX005 (ip), vehicle: saline with Tween-80
[5] = dose: 120.0 mg/kg/injection, schedule: Q01DX005 (ip), vehicle: saline with Tween-80
[6] = dose: 240.0 mg/kg/injection, schedule: Q01DX005 (ip), vehicle: saline with Tween-80
[7] = dose: 200.0 mg/kg/injection, schedule: Q01DX009 (ip), vehicle: saline with Tween-80
[8] = dose: 50.0 mg/kg/injection, schedule: Q01DX005 (ip), vehicle: Klucel (hydroxypropylcellulose) (HPC)
[9] = dose: 100.0 mg/kg/injection, schedule: Q01DX005 (ip), vehicle: Klucel (hydroxypropylcellulose) (HPC)
[10] = dose: 200.0 mg/kg/injection, schedule: Q01DX005 (ip), vehicle: Klucel (hydroxypropylcellulose) (HPC)

Measured: T/C

Cc1c(N=Nc2c(S(=O)(=O)O)cc3cc(S(=O)(=O)O)c(N=Nc4c(C)n(C)n(-c5ccccc5)c4=O)c(O)c3c2O)c(=O)n(-c2ccccc2)n1C
inactive: dose: 60.0 mg/kg/injection, schedule: Q01DX005 (ip), vehicle: suspension in saline 101 % of control | dose: 120.0 mg/kg/injection, schedule: Q01DX005 (ip), vehicle: suspension in saline 96 % of control | dose: 240.0 mg/kg/injection, schedule: Q01DX005 (ip), vehicle: suspension in saline 110 % of control

COC(=O)c1nc(OC)nc(OC)c1C#CCOC1CCCCO1 (stereo not given)
inactive: dose: 12.5 mg/kg/injection, schedule: Q01DX009 (ip), vehicle: distilled water + Tween-80 92 % of control | dose: 25.0 mg/kg/injection, schedule: Q01DX009 (ip), vehicle: distilled water + Tween-80 108 % of control | dose: 50.0 mg/kg/injection, schedule: Q01DX009 (ip), vehicle: distilled water + Tween-80 94 % of control | dose: 100.0 mg/kg/injection, schedule: Q01DX009 (ip), vehicle: distilled water + Tween-80 94 % of control

CC12CCC3C(CCC4CC(O)CCC43C)C1CC(C1(O)C(=O)Nc3ccccc31)C2=O (stereo not given)
inactive: [1] 94 % of control | [2] 88 % of control | [3] 94 % of control

COCC1(C)CCCC2(C)C1CCC1(O)CCCCC12O (stereo not given)
inactive: dose: 100.0 mg/kg/injection, schedule: Q01DX001 (ip), vehicle: saline 100 % of control | dose: 200.0 mg/kg/injection, schedule: Q01DX001 (ip), vehicle: saline 100 % of control | dose: 400.0 mg/kg/injection, schedule: Q01DX001 (ip), vehicle: saline 108 % of control

Cc1[nH]c2ccc(N(C)C)cc2c(=O)c1CN(C)Cc1c(C)[nH]c2ccc(N(C)C)cc2c1=O
inactive: [4] 99 % of control | [5] 100 % of control | [6] 100 % of control

CC(=O)OC1CCC2(C)C(C1)CC(OC(C)=O)C1C2CC(OC(C)=O)C2(C)C(C(C)CC=C(c3ccccc3)c3ccccc3)CCC12 (stereo not given)
inactive: [2] 100 % of control | [3] 98 % of control | [7] 99 % of control

COC(=O)c1cc2c(C(=O)OC)cc1CSCc1cccc(c1)CSC2
inactive: dose: 12.5 mg/kg/injection, schedule: Q01DX009 (ip), vehicle: suspension in saline 90 % of control | dose: 25.0 mg/kg/injection, schedule: Q01DX009 (ip), vehicle: suspension in saline 87 % of control | dose: 50.0 mg/kg/injection, schedule: Q01DX009 (ip), vehicle: suspension in saline 97 % of control

O=c1c2cc(Cl)ccc2nc2n1OCC2
inactive: dose: 50.0 mg/kg/injection, schedule: Q01DX009 (ip), vehicle: Klucel (hydroxypropylcellulose) (HPC) 94 % of control | dose: 100.0 mg/kg/injection, schedule: Q01DX009 (ip), vehicle: Klucel (hydroxypropylcellulose) (HPC) 112 % of control | dose: 200.0 mg/kg/injection, schedule: Q01DX009 (ip), vehicle: Klucel (hydroxypropylcellulose) (HPC) 104 % of control

CCOC(=O)C(CCCOC1CCCCO1)(C(=O)CC)c1ccccc1 (stereo not given) (tested in a mixture with another compound)
inactive: dose: 50.0 mg/kg/injection, schedule: Q01DX009 (ip), vehicle: acetone 111 % of control | dose: 100.0 mg/kg/injection, schedule: Q01DX009 (ip), vehicle: acetone 103 % of control | dose: 200.0 mg/kg/injection, schedule: Q01DX009 (ip), vehicle: acetone 107 % of control

O=C1c2ccccc2C(=O)N1C1Cc2nc3ccccc3n2C1=O (stereo not given)
inactive: [4] 98 % of control | [5] 93 % of control | [6] 89 % of control

CC(=O)Oc1cccn2c(C(=O)C(=O)c3ccc4c(OC(C)=O)cccn34)ccc12
inactive: [8] 92 % of control | [9] 86 % of control | [10] 94 % of control

CC(=O)ON(C(C)=O)C1CCCCC1
inactive: [2] 100 % of control | [3] 97 % of control | [7] 98 % of control

O=C1CSC(=O)N1c1cccc(C(F)(F)F)c1
inactive: [2] 104 % of control | [3] 97 % of control

O=S1(=O)Oc2c(Cl)cc(Cl)cc2S(=O)(=O)Oc2c(Cl)cc(Cl)cc21
inactive: [4] 93 % of control | [5] 94 % of control | [6] 86 % of control

CN(C)/[N+]([O-])=N/N1C(=O)c2ccccc2C1=O
inactive: [8] 101 % of control | [9] 105 % of control | [10] 101 % of control

CC(Nc1nccs1)Nc1nccs1
inactive: dose: 6.25 mg/kg/injection, schedule: Q01DX009 (ip), vehicle: saline with Tween-80 102 % of control and 96 % of control | dose: 12.5 mg/kg/injection, schedule: Q01DX009 (ip), vehicle: saline with Tween-80 108 % of control and 98 % of control | [1] 102 % of control and 97 % of control | [2] 111 % of control | [3] 109 % of control
